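Protocol summary: plate cells (96-well), add compound at 5 concentrations, incubate 48 h, interpolate endpoints linearly. GI50 = concentration required for 50% inhibition of growth. The concentration for full growth arrest is given as TGI.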
Columns and labels:
Experiment in all cases: NCI anticancer screen, dose series, 48 h
[1] = test system: HL-60(TB) leukemia
[2] = test system: UO-31 renal
[3] = test system: SNB-19 CNS
[4] = test system: OVCAR-3 ovarian
[5] = test system: COLO 205 colon
[6] = test system: A549 NSCLC
[7] = test system: TK-10 renal
[8] = test system: KM12 colon
[9] = test system: MDA-MB-435
[10] = test system: PC-3 prostate

| Structure (SMILES) | TGI [1] | TGI [2] | TGI [3] | TGI [4] | TGI [5] | TGI [6] | TGI [7] | TGI [8] | GI50 [1] | GI50 [8] | GI50 [2] | GI50 [3] | GI50 [9] | TGI [9] | GI50 [4] | GI50 [10] | TGI [10] | GI50 [5] | GI50 [6] | GI50 [7] |
| --- | --- | --- | --- | --- | --- | --- | --- | --- | --- | --- | --- | --- | --- | --- | --- | --- | --- | --- | --- | --- |
| O=S(=O)(/C=C/CS(=O)(=O)c1ccccc1)c1ccccc1 | 37.9 µM | > 100 µM | > 100 µM | 84.7 µM | > 100 µM | 60.8 µM | > 100 µM | 32.3 µM |  |  |  |  |  |  |  |  |  |  |  |  |
| CC(=O)O[C@H]1CCC2[C@@H]3CCC4c5nonc5CC[C@]4(C)C3CC[C@@]21C (stereo partly drawn) | > 100 µM | > 10 µM | > 10 µM |  | > 10 µM | > 10 µM | > 10 µM | > 100 µM | > 100 µM | > 100 µM |  |  |  |  |  |  |  |  |  |  |
| C=C1c2ccoc2C[C@H]2[C@H]1CC[C@@]1(O)[C@@](C)(C(=O)OC)CCC[C@]21C |  | > 100 µM | > 100 µM | 43.3 µM | 55 µM | > 100 µM | > 100 µM | 89.7 µM |  | 25.6 µM | 33.9 µM | 62.1 µM | 23.9 µM | 54.3 µM | 17.4 µM | 27.6 µM | > 100 µM | 20 µM | 25.5 µM | > 100 µM |
| COc1cc([N+](=O)[O-])c(OC)cc1-c1nc2sccn2c1/C=N/N=C(N)N |  | > 100 µM | > 100 µM | 66.5 µM | > 100 µM | 68.7 µM | 50.6 µM | > 100 µM |  | 4.36 µM | 42.5 µM | 8.52 µM | 15.5 µM | 52.3 µM | 14.6 µM | 24.2 µM | > 100 µM | 66 µM | 20.8 µM | 18 µM |
| COc1ccc2nc3cc(Cl)ccc3c(SCC(=O)Nc3ccccc3-c3ccccc3NC(=O)CSc3c4ccc(Cl)cc4nc4ccc(OC)cc34)c2c1 |  | > 100 µM | > 100 µM | > 100 µM | > 100 µM | > 100 µM | > 100 µM | > 100 µM |  |  |  |  |  |  |  |  |  |  |  |  |
| COc1cnc2c(c1)C(=O)c1c-2n(CCCNC2=NCCS2)c(=O)c2cc(Cl)ccc12 | 3.39 µM | 1.74 µM |  | 3.07 µM | 2.41 µM | 2.51 µM | 3.09 µM | 2.82 µM | 0.656 µM | 1.33 µM | 0.163 µM |  | 1.43 µM | 2.76 µM | 1.35 µM |  |  | 1.06 µM | 1.2 µM | 1.66 µM |
| Oc1c(Cl)c(Cl)c(O)c2c1CCCC2 |  | 5.28 µM | 30.5 µM |  | 3.74 µM | 72.6 µM | 9.14 µM | 30.2 µM |  |  |  |  |  | 34.1 µM |  |  | 36.7 µM |  |  |  |
| CCCN(CCC)C(=O)C(=O)c1c(N)[nH]n(-c2ccccc2)c1=O | > 100 µM | > 100 µM | > 100 µM | > 100 µM | > 100 µM | > 100 µM | > 100 µM | > 100 µM |  |  |  |  |  |  |  |  |  |  |  |  |
| O=C1/C(=N\O)S(=O)(=O)c2ccccc21 | > 100 µM | > 100 µM | > 100 µM |  | > 100 µM | > 100 µM | > 100 µM | > 100 µM |  |  |  |  |  |  |  |  |  |  |  |  |
| NC(=O)NC12CC3CC(CC(F)(C3)C1)C2 | > 100 µM | > 100 µM | > 100 µM | > 100 µM | > 100 µM | > 100 µM | > 100 µM | > 100 µM |  |  |  |  |  |  |  |  |  |  |  |  |
| CC(C)(c1ccccc1)c1ccc(Oc2ccc(C#N)c(C#N)c2)cc1 | > 100 µM | 40.5 µM | > 100 µM |  | > 100 µM | > 100 µM | > 100 µM | > 100 µM |  | > 100 µM |  |  |  |  |  |  |  | > 100 µM |  | > 100 µM |
| O=C(O)C(CS)NCc1c2ccccc2nc2ccccc12 (stereo not drawn) | 62 µM | 64.2 µM | > 100 µM | > 100 µM | > 100 µM | > 100 µM | > 100 µM | > 100 µM |  |  |  |  |  |  |  |  |  |  |  |  |
| CC(C)(C)c1[nH]nc2c1C(c1cc3ccccc3[nH]c1=O)Nc1cc(C(=O)OCc3ccccc3)ccc1N2 (stereo not drawn) | > 100 µM | > 100 µM | > 100 µM |  | 10.4 µM | > 100 µM | 19.6 µM | 7.34 µM | 3.66 µM | 2.83 µM | 3.42 µM | 3.28 µM | 2.95 µM | > 100 µM |  | 2.7 µM | > 100 µM | 3.54 µM | 3.33 µM | 3.83 µM |
| CCC[CH2][Sn]1([CH2]CCC)[O]C2C(CO)OC(n3ccc(N)nc3=O)C2[O]1 (stereo not drawn) |  | 2.43 µM | 2.93 µM | 2.94 µM | 3.15 µM | 4.73 µM | 2.38 µM | 3.13 µM |  | 1.68 µM | 1.16 µM | 1.55 µM | 1.41 µM | 2.88 µM | 1.58 µM | 1.66 µM | 3.26 µM | 1.48 µM | 2.38 µM | 1.15 µM |
| Cc1cn2c(/C=C3/C(=O)Nc4ccc(O)cc43)c(C)nc2s1 |  | > 100 µM | > 100 µM | > 22.6 µM | > 100 µM | > 80.6 µM | 26 µM | 24.3 µM |  | 1.8 µM | 26.5 µM | 5.47 µM | 0.169 µM | 1.15 µM | 0.486 µM | 2.11 µM | 37.2 µM | 3.58 µM | 19.9 µM | 2.43 µM |
| COc1cc(OC)c(C(=O)/C=C/c2cccc(C#N)c2)c(OC)c1 |  | 4.86 µM | 6.61 µM | 6.74 µM | 6.04 µM | 6.1 µM | 5.52 µM | 5.97 µM |  | 1.64 µM | 1.13 µM | 1.67 µM | 1.42 µM | 6.38 µM | 1.75 µM | 1.71 µM | 8.26 µM | 1.79 µM | 1.43 µM | 1.63 µM |
| COC1=C(C)C(=O)c2c(cc3c(c2O)C(C)(CCC=C(C)C)C(C)O3)C1=O (stereo not drawn) | > 100 µM | > 100 µM | 34.5 µM | > 100 µM | > 100 µM | 39.8 µM | > 100 µM | > 100 µM |  |  |  |  |  |  |  |  |  |  |  |  |
| CNC(=O)OCc1c2ccncc2c(C)c2c1[nH]c1ccc(OC)cc12 | 0.623 µM | 0.395 µM | 1.93 µM | > 100 µM | 2.11 µM | > 100 µM | > 100 µM | > 100 µM |  |  |  |  |  |  |  |  |  |  |  |  |
